{"source": "patent US12194081B2", "about": "“ARGINASE1 polypeptides” (IO BIOTECH APS, priority 2018, dated 2025)", "key": {"[1]": {"tested_on": "CD4+ and CD8+ T cells in PBMCs", "assay": "Intracellular staining for IFNγ and TNFα in CD4+ and CD8+ T cells", "type": "cell-based, human", "procedure": "Intracellular staining of cell cultures was performed after PBMCs were stimulated with arginase-derived peptides for 5 hours in the presence of BD GolgiPlug™ (added after the first hour of peptide stimulation). Stimulated cells were stained with fluorescently labeled antibodies for surface markers (CD3, CD4, CD8) and thereafter permeabilized by using Fixation/Permeabilization and Permeabilization Buffer (eBioscience, cat. 00-5123-43), according to manufacturer's instructions. Permeabilized cells were then stained with fluorochrome-labeled antibodies for IFNγ and TNFα. Flow cytometry analysis was performed on a FACSCanto™ II (BD Biosciences). Antibodies used: IFNγ-APC (cat. 341117), TNFα-455 BV421 (cat. 562783), CD4-FITC (cat. 347413), CD8-PerCP (cat. 345774), CD3-APC-H7 (cat. 560275) (all from BD Biosciences), dead cells stain-FVS510 (564406, BD Biosciences) according to manufacturer's instructions."}, "[2]": {"tested_on": "MC38 colon adenocarcinoma", "assay": "Tumour vaccination, MC38 colon adenocarcinoma tumour model", "type": "in vivo, mouse", "settings": "100 μg ArgLong2 with Montanide, days 0, 7, 14; p=0.030 Mixed effects analysis; FIG. 7", "procedure": "(§1) Animals were vaccinated subcutaneously with 100 μg peptide in DMSO/H2O in a 1:1 emulsion with incomplete Montanide ISA 51 VG. Montanide ISA 51 VG+DMSO/H2O served as a control vaccine. For subsequent analysis of the immune response to the ArgLong2 peptide, mice were sacrificed on day 7 and spleen and draining lymph nodes (dLNs) were harvested for ELISPOT setup.\n(§2) Each animal was inoculated subcutaneously into the right flank with 0.5×10^6 syngeneic tumour cells in 100 μl media. Both the syngeneic B16 F10 melanoma cells line and the syngeneic MC38 colon adenocarcinoma cell line were used. Vaccinations were initiated on day 0 and repeated once a week (day 7 and day 14). Peptide and control vaccinations were performed as described above.\n(§3) Tumour growth was monitored and tumours were measured approximately every second day. Tumour volume was calculated at V [mm^3]=L×W^2/2 (where L is the longest diameter and W perpendicular to L). Maximum tumor size before mice were euthanized was 864 mm^3 (L=12 mm, W=12 mm)."}, "[3]": {"tested_on": "CD4+ and CD8+ memory T cells (CD45RO+)", "assay": "ex vivo IFNγ ELISPOT of sorted memory T cells", "type": "cell-based, human", "procedure": "For in vitro ELISPOT, PBMCs from cancer patients and healthy donors were pulsed with 20 μM of Arginase 1-derived peptides and 120 U/ml IL-2 in 24-well plates for 7 days before being used in an ELISPOT assay. The cells were placed in 96-well nitrocellulose ELISPOT plates (MultiScreen MAIP N45; Millipore) pre-coated with IFNγ capture antibody (Mabtech). Arginase peptides added to a final concentration of 5 μM and plates incubated at 37° C. for 14-16 hours. After the incubation the cells were washed off and secondary biotinylated Ab (Mabtech, cat. 3420-6-1000) was added for 2 hours at room temperature. Unbound secondary antibody was washed off and streptavidin conjugated alkaline phosphatase (AP) (Mabtech, cat. 3310-10) was added for 1 hour at room temperature. Unbound conjugated enzyme was washed off and the assay was developed by adding BCIP/NBT substrate (Mabtech, cat. 3650-10). Developed ELISPOT plates were analyzed on CTL ImmunoSpot S6 Ultimate-V analyzer using Immunospot software v5.1. Responses were reported as the difference between average numbers of spots in wells stimulated with Arginase 1 and wells without added peptide.\nCD4+ and CD8+ memory T cells were sorted from freshly thawed healthy donor or cancer patient PBMC samples using magnetic bead sorting kits: Memory CD4+ T Cell Isolation Kit, human (cat. 130-091-893, Miltenyi Biotec) and CD8+ Memory T Cell Isolation Kit, human (cat. 130-094-412, Miltenyi Biotec). The purity of isolated cells was assessed by staining for CD4-FITC, CD8-PerCP, CD45RO-PE (all from BD Biosciences), dead cells were stained using LIVE/DEAD™ Fixable Near-IR Dead Cell Stain Kit (Invitrogen™, ThermoFisher Scientific).\nTo test that CD4+ and CD8+ memory T cells were sorted from PBMCs of cancer patients and healthy donors that had shown a strong spontaneous immune response ex vivo. […] The purity of memory T cell isolation was confirmed by flow cytometric analysis for CD4+ CD45RO+ and CD8+ CD45RO+ T cells and was determined to be >95%. […] Clear CD8+ memory responses could be detected in 2 healthy donors (see FIG. 4C)."}, "B16F10 melanoma": {"tested_on": "B16F10 melanoma", "assay": "Tumour vaccination, B16F10 melanoma tumour model", "type": "in vivo, mouse", "settings": "100 μg ArgLong2 with Montanide, days 0, 7, 14; FIG. 8", "procedure": "as §1, §2, §3"}}}
{"sequence": "ISAKDIVYIGLRDVDPGEHYILKTLGIKYFSMTEVDRL (Peptide fragment of human Arginase 1 (ArgLong2)) [38-mer, positions 169-206 of full length human Arginase 1]", "values": [{"measurement": "ex vivo CD4+ responses, intracellular staining", "setting": "[1]; PBMCs from two cancer patients (MM27, BC30) without prior peptide stimulation, FIG. 3B left", "value": "ex vivo CD4+ responses in PBMCs from both cancer patients"}, {"measurement": "ex vivo CD8+ responses, intracellular staining", "setting": "[1]; PBMCs from two cancer patients (MM27, BC30) without prior peptide stimulation, FIG. 3B right", "value": "ex vivo CD8+ responses in the breast cancer patient PBMCs"}, {"measurement": "CD4+ T cell responses, in vitro intracellular staining", "setting": "[1]; two healthy donors and one breast cancer patient, one week after stimulation with ArgLong2 and low dose IL-2, FIG. 3A left", "value": "detected in one healthy donor and in the breast cancer patient PBMCs"}, {"measurement": "CD8+ T cell responses, in vitro intracellular staining", "setting": "[1]; two healthy donors and one breast cancer patient, one week after stimulation with ArgLong2 and low dose IL-2, other healthy donor showed only CD8+ response, FIG. 3A right", "value": "detected in one healthy donor and in the breast cancer patient PBMCs"}, {"measurement": "tumour growth vs control vaccination, MC38", "setting": "[2]", "value": "significantly delay tumour growth"}, {"measurement": "cancer patients with CD4+ memory responses", "setting": "[3]; sorted CD4+ CD45RO+ T cells from 2 cancer patients, FIG. 4B", "value": 2, "unit": "cancer patients"}, {"measurement": "healthy donors with CD4+ memory responses", "setting": "[3]; sorted CD4+ CD45RO+ T cells from 4 healthy donors, FIG. 4B", "value": 3, "unit": "healthy donors"}, {"measurement": "healthy donors with clear CD8+ memory responses", "setting": "[3]; sorted CD8+ CD45RO+ T cells, FIG. 4C", "value": 2, "unit": "healthy donors"}, {"measurement": "tumour growth vs control vaccination, B16", "setting": "B16F10 melanoma", "value": "significantly delay tumour growth"}]}
